# Assay results from US8269019B2, “Inhibitors” (Probiodrug AG, priority 2010, dated 2012).
# Molecular target: hQC (Homo sapiens, UniProt Q16769)
# Assay: QC inhibitor assay (hQC inhibition, Ki and IC50)
# Type: biochemical
# Experimental: All measurements were performed with a BioAssay Reader HTS-7000Plus for microplates (Perkin Elmer) at 30° C. QC activity was evaluated fluorometrically using H-Gln-βNA. The samples consisted of 0.2 mM fluorogenic substrate, 0.25 U pyroglutamyl aminopeptidase (Unizyme, Hørsholm, Denmark) in 0.2 M Tris/HCl, pH 8.0 containing 20 mM EDTA and an appropriately diluted aliquot of QC in a final volume of 250 μl. Excitation/emission wavelengths were 320/410 nm. The assay reactions were initiated by addition of glutaminyl cyclase. QC activity was determined from a standard curve of β-naphthylamine under assay conditions. One unit is defined as the amount of QC catalyzing the formation of 1 μmol pGlu-βNA from H-Gln-βNA per minute under the described conditions.
# In a second fluorometric assay, QC was activity determined using H-Gln-AMC as substrate. Reactions were carried out at 30° C. utilizing the NOVOStar reader for microplates (BMG labtechnologies). The samples consisted of varying concentrations of the fluorogenic substrate, 0.1 U pyroglutamyl aminopeptidase (Qiagen) in 0.05 M Tris/HCl, pH 8.0 containing 5 mM EDTA and an appropriately diluted aliquot of QC in a final volume of 250 μl. Excitation/emission wavelengths were 380/460 nm. The assay reactions were initiated by addition of glutaminyl cyclase. QC activity was determined from a standard curve of 7-amino-4-methylcoumarin under assay conditions. The kinetic data were evaluated using GraFit sofware.
# This novel assay was used to determine the kinetic parameters for most of the QC substrates. QC activity was analyzed spectrophotometrically using a continuous method, that was derived by adapting a previous discontinuous assay (Bateman, R. C. J. 1989 J Neurosci Methods 30, 23-28) utilizing glutamate dehydrogenase as auxiliary enzyme. Samples consisted of the respective QC substrate, 0.3 mM NADH, 14 mM α-Ketoglutaric acid and 30 U/ml glutamate dehydrogenase in a final volume of 250 μl. Reactions were started by addition of QC and persued by monitoring of the decrease in absorbance at 340 nm for 8-15 min.
# The initial velocities were evaluated and the enzymatic activity was determined from a standard curve of ammonia under assay conditions. All samples were measured at 30° C., using either the SPECTRAFIuor Plus or the Sunrise (both from TECAN) reader for microplates. Kinetic data was evaluated using GraFit software.
# For inhibitor testing, the sample composition was the same as described above, except of the putative inhibitory compound added. For a rapid test of QC-inhibition, samples contained 4 mM of the respective inhibitor and a substrate concentration at 1 KM. For detailed investigations of the inhibition and determination of Ki-values, influence of the inhibitor on the auxiliary enzymes was investigated first. In every case, there was no influence on either enzyme detected, thus enabling the reliable determination of the QC inhibition. The inhibitory constant was evaluated by fitting the set of progress curves to the general equation for competitive inhibition using GraFit software.
# Sequence of hQC (Q16769 29-361): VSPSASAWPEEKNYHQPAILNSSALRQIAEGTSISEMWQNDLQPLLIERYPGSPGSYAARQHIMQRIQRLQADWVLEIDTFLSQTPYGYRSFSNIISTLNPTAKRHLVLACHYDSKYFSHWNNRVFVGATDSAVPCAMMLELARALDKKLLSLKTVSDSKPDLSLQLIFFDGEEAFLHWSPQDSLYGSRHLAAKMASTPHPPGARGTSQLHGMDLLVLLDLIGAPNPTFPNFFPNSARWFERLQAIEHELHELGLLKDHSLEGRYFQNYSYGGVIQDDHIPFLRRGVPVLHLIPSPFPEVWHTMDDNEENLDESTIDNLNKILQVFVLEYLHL
SMILES,IC50 [nM],Ki [nM]
"COC1=C(C)[C@H](c2cccc(F)c2F)N(c2ccc3nc[nH]c3c2)C1=O (single isomer, unassigned) [Example 9]",18.7,4.7
"COC1=C(C)[C@@H](c2cccc(F)c2F)N(c2ccc3nc[nH]c3c2)C1=O (single isomer, unassigned) [Example 10]",169,32.3
"COC1=C(c2ccccc2)C(c2cc(F)cc(F)c2F)N(c2ccc3[nH]cnc3c2)C1=O (stereo not drawn) [Example 5, 1-(1H-Benzo[d]imidazol-5-yl)-5-(2,3,5-trifluorophenyl)-3-methoxy-4-phenyl-1H-pyrrol-2(5H)-one]",317,54.9
"COC1=C(C)C(c2cccc(F)c2F)N(c2ccc3nc[nH]c3c2)C1=O (stereo not drawn) [Example 8, 1-(1H-Benzo[d]imidazol-6-yl)-5-(2,3-difluorophenyl)-3-methoxy-4-methyl-1H-pyrrol-2(5H)-one]",117,20.9
"COC1=C(C)C(c2cccc(Cl)c2Cl)N(c2ccc3[nH]cnc3c2)C1=O (stereo not drawn) [Example 17, 1-(1H-Benzo[d]imidazol-6-yl)-5-(2,3-dichlorophenyl)-3-methoxy-4-methyl-1H-pyrrol-2(5H)-one]",557,46.6
"COC1=C(C)C(c2ccc(C3CCCCC3)cc2)N(c2ccc3nc[nH]c3c2)C1=O (stereo not drawn) [Example 25, 1-(1H-Benzo[d]imidazol-6-yl)-5-(4-cyclohexylphenyl)-3-methoxy-4-methyl-1H-pyrrol-2(5H)-one]",195,45.3
"COC1=C(C)C(c2ccc(C3CCC(F)(F)CC3)cc2)N(c2ccc3nc[nH]c3c2)C1=O (stereo not drawn) [Example 26, 1-(1H-Benzo[d]imidazol-6-yl)-5-(4-(4,4-difluorocyclohexyl)phenyl)-3-methoxy-4-methyl-1H-pyrrol-2(5H)-one]",292,36.2
"COC1=C(C)C(c2ccc(C3CCC(N4CCOCC4)CC3)cc2)N(c2ccc3nc[nH]c3c2)C1=O (stereo not drawn) [Example 29, 1-(1H-Benzo[d]imidazol-6-yl)-3-methoxy-4-methyl-5-(4-(4-morpholinocyclo-hexyl)phenyl)-1H-pyrrol-2(5H)-one]",221,18.7
"COC1=C(C)C(C2CCC(c3ccccc3)CC2)N(c2ccc3nc[nH]c3c2)C1=O (stereo not drawn) [Example 32, 1-(1H-Benzo[d]imidazol-6-yl)-3-methoxy-4-methyl-5-(4-phenylcyclohexyl)-1H-pyrrol-2(5H)-one]",821,164
